≈ marks a conversion by molar mass, not a printed value.
Columns and labels:
[1] = Lipophilicity, logD of compound at pH 7.5 by reversed-phase HPLC analysis; type: physicochemical; details: buffer
[2] = Metabolic stability in Han Wistar rat hepatocytes assessed as maximum bioavailability at 1 uM in presence of NADP and measured upto 90 mins by LC-MS/MS analysis; type: ADME, Hepatocyte; details: read-out: Fmax
[3] = Metabolic stability in Han Wistar rat liver microsomes assessed as maximum bioavailability at 1 uM in presence of NADP and measured upto 60 mins by LC-MS/MS analysis; type: ADME, Microsome; details: read-out: Fmax
[4] = Metabolic stability in Han Wistar rat liver microsomes assessed as intrinsic clearance at 1 uM in presence of NADP and measured upto 60 mins by LC-MS/MS analysis; type: ADME, Microsome; details: read-out: CLH (converted)
[5] = Metabolic stability in Han Wistar rat hepatocytes assessed as intrinsic clearance at 1 uM in presence of NADP and measured upto 90 mins by LC-MS/MS analysis; type: ADME, cell-based, Hepatocyte; details: read-out: CLH (converted)
[6] = Aqueous solubility of compound at pH 6.5 and measured after 24 hrs by HPLC-MS/MS analysis; type: physicochemical; details: buffer
[7] = Acid dissociation constant, pKa of the compound; type: physicochemical
[8] = Stability of compound at pH 10 at 5 uM and measured upto 24 hrs by HPLC-UV analysis; type: physicochemical; details: buffer, pH 10, 24 h
[9] = Metabolic stability in human liver microsomes assessed as maximum bioavailability at 1 uM in presence of NADP and measured upto 60 mins by LC-MS/MS analysis; type: ADME, Microsome; details: read-out: Fmax
[10] = Stability of compound at pH 7 at 5 uM and measured upto 24 hrs by HPLC-UV analysis; type: physicochemical; details: buffer, pH 7, 24 h
[11] = Stability of compound at pH 1 at 5 uM and measured upto 24 hrs by HPLC-UV analysis; type: physicochemical; details: buffer, pH 1, 24 h

| SMILES | chromatographic logD [1] | other results |
| --- | --- | --- |
| CC[C@@H](Nc1c(C#N)c(-c2ccc(-c3cccc(C)c3)cc2)nc2cnccc12)C(N)=O | 3 | – |
| CCOc1ccccc1-c1ccc(-c2nc3cnccc3c(N)c2C#N)cc1 | 3 | – |
| CC[C@@H](Nc1c(C#N)c(-c2ccc(-c3ccccc3N(C)C)cc2)nc2cnccc12)C(N)=O | 3.2 | – |
| CCOc1ccccc1-c1ccc(-c2nc3cnccc3c(N[C@H](CC)C(=O)N(C)C)c2C#N)cc1 | 3.7 | – |
| CCOc1ccccc1-c1ccc(-c2nc3cnccc3c(N[C@@H]3CCNC3=O)c2C#N)cc1 | 2.7 | – |
| CC[C@@H](Nc1c(C#N)c(-c2ccc(-c3ccccc3COC)cc2)nc2cnccc12)C(N)=O | 2.6 | – |
| CC[C@@H](Nc1c(C#N)c(-c2ccc(-c3ccccc3NC)cc2)nc2cnccc12)C(N)=O | 2.5 | – |
| CC[C@@H](Nc1c(C#N)c(-c2ccc(-c3cccc(Cl)c3OC)cc2)nc2cnccc12)C(N)=O | 3.1 | – |
| CCOc1ccccc1-c1ccc(-c2nc3cnccc3c(N[C@H](CC(C)C)C(N)=O)c2C#N)cc1 | 3.4 | – |
| CC[C@@H](Nc1c(C#N)c(-c2ccc(-c3cccc(Cl)c3)cc2)nc2cnccc12)C(N)=O | 3.1 | – |
| CC[C@@H](Nc1c(C#N)c(-c2ccc(-c3cnccc3C)cc2)nc2cnccc12)C(N)=O | 2 | – |
| CC[C@@H](Nc1c(C#N)c(-c2ccc(-c3ccccc3C(F)(F)F)cc2)nc2cnccc12)C(N)=O | 3.1 | – |
| CC[C@@H](Nc1c(C#N)c(-c2ccc(-c3ccccc3C(C)C)cc2)nc2cnccc12)C(N)=O | 3.5 | – |
| CC[C@@H](Nc1c(C#N)c(-c2ccc(-c3ccccc3CO)cc2)nc2cnccc12)C(N)=O | 2.1 | – |
| CCOc1ccccc1-c1ccc(-c2nc3cnccc3c(C[C@H](C)C(N)=O)c2C#N)cc1 | 3 | – |
| CC[C@@H](Nc1c(C#N)c(-c2ccc(-c3cccc(CO)c3)cc2)nc2cnccc12)C(N)=O | 2 | – |
| CCOc1ccccc1-c1ccc(-c2nc3cnccc3c(N[C@H](CC)C(=O)NS(C)(=O)=O)c2C#N)cc1 | 2.2 | – |
| CCOc1ccccc1-c1ccc(-c2nc3cnccc3c(N[C@H](CC)C(=O)NCC(F)F)c2C#N)cc1 | 3.6 | – |
| CCOc1ccccc1-c1ccc(-c2nc3cnccc3cc2C#N)cc1 | 3.8 | – |
| CCOc1ccccc1-c1ccc(-c2nc3cnccc3c(N[C@H](CC)C(=O)NS(=O)(=O)C3CC3)c2C#N)cc1 | 2.3 | – |
| CCOc1ccccc1-c1ccc(-c2nc3cnccc3c(NC(C(N)=O)C3CC3)c2C#N)cc1 (racemic) | 3 | – |
| CCOc1ccccc1-c1ccc(-c2nc3cnccc3c(NC(COC)C(N)=O)c2C#N)cc1 (racemic) | 2.8 | – |
| CCOc1ccccc1-c1ccc(-c2nc3cnccc3c(NC(C)C(=O)O)c2C#N)cc1 (racemic) | 2.1 | pKa [7]: 3.26 |
| CCCCC(Nc1c(C#N)c(-c2ccc(-c3ccccc3OCC)cc2)nc2cnccc12)C(N)=O (racemic) | 3.6 | – |
| CCOc1ccccc1-c1ccc(-c2nc3cnccc3c(NC(CC)CNS(=O)(=O)C3CC3)c2C#N)cc1 (racemic) | 3.6 | – |
| CCOc1ccccc1-c1ccc(-c2nc(NC(C)C(=O)O)c3ccncc3n2)cc1 (racemic) | 2.1 | – |

Second part, led by results:

| chromatographic logD [1] | SMILES | other results |
| --- | --- | --- |
| 1.6 | CC[C@@H](Nc1c(C#N)c(-c2ccc(Br)cc2)nc2cnccc12)C(=O)O | – |
| 2.1 | CCOc1ccccc1-c1ccc(-c2nc3cnccc3c(N[C@H](CC)C(=O)O)c2C#N)cc1 | Fh at 1.5 h, 1 µM [2]: 87%; Fh at 1 h, 1 µM [3]: 87%; CLint scaled at 1 µM [4]: 8.33 mL/min/kg; CLint scaled at 1 µM [5]: 8.33 mL/min/kg; solubility at 24 h [6]: 112 µg/mL (≈ 248 µM) |
| 2.9 | CC[C@@H](Nc1c(C#N)c(-c2ccc(-c3ccccc3Cl)cc2)nc2cnccc12)C(N)=O | – |
| 2 | CC[C@@H](Nc1c(C#N)c(-c2ccc(-c3ccncc3C)cc2)nc2cnccc12)C(N)=O | – |
| 1.9 | CC[C@@H](Nc1c(C#N)c(-c2ccc(-c3cccnc3C)cc2)nc2cnccc12)C(N)=O | – |
| 2.2 | CC[C@@H](Nc1c(C#N)c(-c2ccc(-c3cccc(Cl)c3F)cc2)nc2cnccc12)C(=O)O | – |
| 2 | CC[C@@H](Nc1c(C#N)c(-c2ccc(-c3ncccc3C)cc2)nc2cnccc12)C(N)=O | – |
| 2.1 | CC(C)(Nc1c(C#N)c(-c2ccc(Br)cc2)nc2cnccc12)C(N)=O | – |
| 3 | CC[C@@H](Nc1c(C#N)c(-c2ccc(-c3ccccc3C)cc2)nc2cnccc12)C(N)=O | – |
| 2.7 | CC[C@@H](Nc1c(C#N)c(-c2ccc(-c3ccc(F)cc3)cc2)nc2cnccc12)C(N)=O | – |
| 2.1 | CC(Nc1c(C#N)c(-c2ccc(Br)cc2)nc2cnccc12)C(N)=O (racemic) | – |
| 2.1 | CC[C@@H](Nc1c(C#N)c(-c2ccc(-c3cccc(C)c3F)cc2)nc2cnccc12)C(=O)O [BAY-091] | Stability [8]: Stable; Fh at 1 h, 1 µM [9]: 100%; Fh at 1.5 h, 1 µM [2]: 44%; Stability [10]: Stable; Fh at 1 h, 1 µM [3]: 33%; CLint scaled at 1 µM [4]: 46.7 mL/min/kg; CLint scaled at 1 µM [5]: 38.3 mL/min/kg; solubility at 24 h [6]: > 1000 µg/mL; Stability [11]: Stable |

Source: ChEMBL document CHEMBL5241108 (J Med Chem, 2021)
